{
  "source": "paper PMC4254008",
  "about": "(European journal of medicinal chemistry, 2014)",
  "key": {"[1]": {"system": "Staphylococcus aureus enoyl-ACP reductase (saFabI)", "details": "cited from earlier work"}, "MRSA strain BAA1762": {"system": "MRSA strain BAA1762", "experiment": "S. aureus thigh muscle infection model, in vivo efficacy", "design": "species or system Swiss Webster mice", "details": "mouse thigh muscle infection model"}, "[2]": {"details": "orally ingested, humans; cited from earlier work"}, "[3]": {"details": "in vivo; cited from earlier work"}, "[4]": {"system": "S. aureus infected thigh muscles", "details": "in vivo; cited from earlier work"}},
  "data": [
    {"compound": "CCCCCCc1ccc(Oc2ccccc2C#N)c(O)c1", "note": "[PT119]", "values": [
      {"measurement": "residence time", "setting": "[1]; on saFabI", "result": 750, "unit": "min"},
      {"measurement": "Ki", "setting": "[1]; saFabI", "result": 10, "unit": "pM"},
      {"measurement": "reduction in the CFU's", "setting": "MRSA strain BAA1762", "result": 3, "unit": "log"}
    ]},
    {"compound": "Oc1cc(Cl)ccc1Oc1ccc(Cl)cc1Cl", "note": "[triclosan]", "values": [
      {"measurement": "absorption from the gastrointestinal tract", "setting": "[2]", "result": "readily absorbed"}
    ]},
    {"compound": "AFN-1252", "values": [
      {"measurement": "AUC/MIC", "setting": "[3]", "result": 20}
    ]},
    {"compound": "[^18F]FDG", "values": [
      {"measurement": "accumulation in infected thigh relative to healthy thigh", "setting": "[4]", "result": "2.3 – 2.6 times"}
    ]}
  ]
}
